Measured values taken from patent US20220144847A1, “HETEROCYCLIC COMPOUND, PHARMACEUTICAL COMPOSITION COMPRISING SAME, PREPARATION METHOD THEREFOR, AND USE THEREOF” (Sichuan Kelun-Biotech Biopharmaceutical Co., Ltd., priority 2019, published 2022).
Where two headings read alike, the source gives them in different places.

Columns and labels:
RET-V804M = RET-V804M (Homo sapiens, UniProt P07949, V804M); assay: RET inhibition experiment (HTRF KinEASE-TK kit), mutant RET-V804M; type: biochemical; details: for IC50: read-out: The IC50 (nM) for inhibiting V804M
Sequence of RET-V804M (P07949 29-1114 V804M): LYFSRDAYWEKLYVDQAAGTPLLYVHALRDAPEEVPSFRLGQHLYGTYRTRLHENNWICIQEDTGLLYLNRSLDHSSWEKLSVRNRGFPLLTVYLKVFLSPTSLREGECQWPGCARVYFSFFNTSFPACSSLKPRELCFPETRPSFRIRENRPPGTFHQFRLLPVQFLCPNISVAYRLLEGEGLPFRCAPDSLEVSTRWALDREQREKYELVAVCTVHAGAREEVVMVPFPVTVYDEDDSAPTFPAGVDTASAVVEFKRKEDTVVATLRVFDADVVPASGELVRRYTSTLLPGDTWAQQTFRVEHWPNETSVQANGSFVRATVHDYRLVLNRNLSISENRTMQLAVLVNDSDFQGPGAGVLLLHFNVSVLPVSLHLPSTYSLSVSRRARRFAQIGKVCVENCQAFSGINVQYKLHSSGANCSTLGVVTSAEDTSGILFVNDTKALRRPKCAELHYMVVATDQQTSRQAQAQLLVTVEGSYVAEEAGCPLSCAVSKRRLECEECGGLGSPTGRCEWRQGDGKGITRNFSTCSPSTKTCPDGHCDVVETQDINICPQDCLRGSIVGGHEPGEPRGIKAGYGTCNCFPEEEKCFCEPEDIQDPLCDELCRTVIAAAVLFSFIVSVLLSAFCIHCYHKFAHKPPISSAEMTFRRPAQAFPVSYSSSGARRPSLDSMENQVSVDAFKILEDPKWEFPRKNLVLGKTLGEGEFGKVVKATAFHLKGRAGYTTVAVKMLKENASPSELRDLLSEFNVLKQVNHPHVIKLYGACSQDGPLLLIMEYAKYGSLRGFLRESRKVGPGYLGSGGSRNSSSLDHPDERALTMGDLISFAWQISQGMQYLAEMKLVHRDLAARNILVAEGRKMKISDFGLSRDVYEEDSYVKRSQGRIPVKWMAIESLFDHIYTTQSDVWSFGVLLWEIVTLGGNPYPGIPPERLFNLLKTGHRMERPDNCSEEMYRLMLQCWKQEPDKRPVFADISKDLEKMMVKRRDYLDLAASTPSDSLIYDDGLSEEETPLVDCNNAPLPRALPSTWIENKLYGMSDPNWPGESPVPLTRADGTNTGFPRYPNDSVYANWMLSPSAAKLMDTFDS
In short: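 Enzyme was pre-incubated with compound at room temperature for 30 min, then substrate and ATP were added for a 40 min reaction. HTRF signal was read after 45 min with TK antibody-cryptate and streptavidin-XL665. IC50 came from a four-parameter fit of percent inhibition against DMSO and no-enzyme controls.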

RET-M918T = RET-M918T (Homo sapiens, UniProt P07949, M918T); assay: RET inhibition experiment (HTRF KinEASE-TK kit), mutant RET-M918T; type: biochemical; details: read-out: The IC50 (nM) for inhibiting the enzyme RET-M918T
Sequence of RET-M918T (P07949 29-1114 M918T): as the sequence (P07949 29-1114 V804M) above, with M776V, M890T counted along it
Procedure: (§1) Experimental method: […] After incubation at room temperature for 40 min, TK antibody-cryptate and streptavidin-XL665 were added, and the test was performed after incubation at room temperature for 45 min. With the solvent group (DMSO) as the negative control and the buffer group (without RET enzyme) as the blank control, the relative inhibitory activity percentages (i.e., inhibition rates) of different concentrations of the compounds were computed as per the following formula: […] The relative inhibitory activity percentages of different concentrations of the compounds were plotted with respect to the compound concentrations, and the curve was fitted according to a four-parameter model to compute the IC50 value as per the following formula: y=min+(max-min)/(1+(x/IC50)^(-Hillslope)) where y is the relative inhibitory activity percentage, max is the maximum value of the fitted curve, min is the minimum value of the fitted curve, x is the logarithmic concentration of the compound, and Hillslope is the slope of the curve.

RET-V804L = RET-V804L (Homo sapiens, UniProt P07949, V804L); assay: RET inhibition experiment (HTRF KinEASE-TK kit), mutant RET-V804L; type: biochemical; details: read-out: The IC50 (nM) for inhibiting RET-V804L
Sequence of RET-V804L (P07949 29-1114 V804L): as the sequence (P07949 29-1114 V804M) above, with M776L counted along it
Procedure: as §1

VEGFR2 = VEGFR2 (Homo sapiens, UniProt P35968); assay: VEGFR2 inhibition experiment (HTRF KinEASE-TK kit); type: biochemical; details: read-out: Inhibition rate on VEGFR2; for inhibition at 0.1 µM: 100 nM
Sequence of VEGFR2 (P35968 20-1356, species assumed): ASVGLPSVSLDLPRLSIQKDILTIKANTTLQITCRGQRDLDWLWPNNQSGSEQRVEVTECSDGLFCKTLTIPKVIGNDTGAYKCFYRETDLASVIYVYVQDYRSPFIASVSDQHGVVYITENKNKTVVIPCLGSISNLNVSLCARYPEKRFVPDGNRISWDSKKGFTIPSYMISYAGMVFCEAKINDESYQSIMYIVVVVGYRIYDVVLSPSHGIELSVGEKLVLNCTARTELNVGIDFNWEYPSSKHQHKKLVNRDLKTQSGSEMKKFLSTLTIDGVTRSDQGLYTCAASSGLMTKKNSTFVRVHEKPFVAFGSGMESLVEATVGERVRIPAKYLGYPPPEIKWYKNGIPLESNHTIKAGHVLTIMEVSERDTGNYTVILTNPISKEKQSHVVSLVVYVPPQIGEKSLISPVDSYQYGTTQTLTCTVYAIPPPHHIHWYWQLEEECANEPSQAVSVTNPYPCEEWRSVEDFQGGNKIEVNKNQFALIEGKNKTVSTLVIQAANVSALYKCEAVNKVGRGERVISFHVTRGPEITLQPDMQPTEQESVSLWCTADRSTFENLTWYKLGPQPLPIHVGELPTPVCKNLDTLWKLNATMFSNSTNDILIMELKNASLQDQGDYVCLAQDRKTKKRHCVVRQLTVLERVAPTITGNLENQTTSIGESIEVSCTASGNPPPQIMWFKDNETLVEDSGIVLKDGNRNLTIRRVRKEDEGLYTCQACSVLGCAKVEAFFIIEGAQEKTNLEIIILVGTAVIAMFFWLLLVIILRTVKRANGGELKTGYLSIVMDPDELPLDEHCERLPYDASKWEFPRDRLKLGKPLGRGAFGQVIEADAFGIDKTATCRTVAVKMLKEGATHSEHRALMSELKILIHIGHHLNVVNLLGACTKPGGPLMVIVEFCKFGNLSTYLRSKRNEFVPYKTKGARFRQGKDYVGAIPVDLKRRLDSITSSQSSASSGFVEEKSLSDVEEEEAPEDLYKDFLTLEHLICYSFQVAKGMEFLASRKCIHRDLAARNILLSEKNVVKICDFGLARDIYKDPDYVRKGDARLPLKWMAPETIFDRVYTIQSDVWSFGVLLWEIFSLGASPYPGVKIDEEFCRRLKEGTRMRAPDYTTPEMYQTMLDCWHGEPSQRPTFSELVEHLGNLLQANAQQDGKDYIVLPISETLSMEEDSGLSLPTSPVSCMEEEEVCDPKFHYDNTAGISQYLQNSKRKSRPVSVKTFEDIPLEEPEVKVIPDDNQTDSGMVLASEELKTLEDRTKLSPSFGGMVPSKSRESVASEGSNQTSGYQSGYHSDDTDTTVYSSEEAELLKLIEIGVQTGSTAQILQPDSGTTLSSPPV
In short: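 HTRF KinEASE-TK format: enzyme and compound were preincubated 30 min at room temperature, then substrate and ATP added for 40 min, followed by cryptate antibody/streptavidin-XL665 detection for 45 min. Inhibition was normalised to DMSO and no-enzyme controls; IC50 from a four-parameter fit.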

RET-WT = RET-WT (Homo sapiens, UniProt P07949); assay: RET inhibition experiment (HTRF KinEASE-TK kit), wild-type RET enzyme; type: biochemical; details: read-out: The IC50 (nM) for inhibiting RET-WT
Sequence of RET-WT (P07949 29-1114): as the sequence (P07949 29-1114 V804M) above, with M776V counted along it
Procedure: as §1

RET-CCDC6 = molecular target: T1, RET-CCDC6 (Homo sapiens, UniProt P07949); assay: RET inhibition experiment (HTRF KinEASE-TK kit), fusion-type RET enzyme; type: biochemical; details: read-out: The IC50 (nM) for inhibiting RET-CCDC6
T1 construct: CCDC6 fusion partner (Q16204 for human); the other entry of the earlier key: CCDC6 (Q16204, Coiled-coil domain-containing protein 6)
T1 sequence (P07949 with tags, fused parts or gaps): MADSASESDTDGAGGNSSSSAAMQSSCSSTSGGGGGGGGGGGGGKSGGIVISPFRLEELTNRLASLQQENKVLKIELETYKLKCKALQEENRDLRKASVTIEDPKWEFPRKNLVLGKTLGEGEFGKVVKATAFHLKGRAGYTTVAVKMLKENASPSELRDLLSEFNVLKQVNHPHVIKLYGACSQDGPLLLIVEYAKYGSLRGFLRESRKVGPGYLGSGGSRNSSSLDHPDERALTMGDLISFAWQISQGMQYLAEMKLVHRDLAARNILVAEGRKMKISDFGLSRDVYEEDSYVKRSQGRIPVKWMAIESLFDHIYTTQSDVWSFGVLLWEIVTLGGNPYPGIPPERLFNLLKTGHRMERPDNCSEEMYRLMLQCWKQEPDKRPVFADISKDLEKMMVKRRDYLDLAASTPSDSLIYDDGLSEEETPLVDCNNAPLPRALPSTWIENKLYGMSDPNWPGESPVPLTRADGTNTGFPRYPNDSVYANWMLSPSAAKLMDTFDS
Procedure: as §1

[1] = Pharmacokinetics and tissue distribution of compounds in rats; type: in vivo; details: male, SD, rat, PO 5 mg/kg; for AUC(0-t): read-out: AUC AUClast; for Cmax: read-out: Peak concentration Cmax; for Kp: read-out: T/P Ratio of AUClast in tissue to plasma; for Tmax: read-out: Time to peak concentration Tmax
Procedure: By intragastric administration (PO) of BLU-667 (prepared according to Example 5 of WO2017/079140A1) and Compound 17 to male SD rats respectively, the plasma concentrations and the tissue concentrations of BLU-667 and Compound 17 in brains, lungs and thyroid of rats were determined to investigate the pharmacokinetic characteristics. The dosage of administration by PO was 5 mg/kg, and the solvent was 0.5% MC (methylcellulose). With administration by PO, blood samples were collected at different time points (0 h before administration, and 0.25 h, 0.5 h, 1 h, 2 h, 4 h, 6 h, 8 h, and 24 h after administration). The blood samples were anticoagulated with dipotassium edetate, and centrifuged to provide plasma samples, which were stored at −80° C. Rats were sacrificed by exsanguination from abdominal aorta at 0.5 h, 2 h, 8 h, and 24 h after PO administration. Brain, lung and thyroid were collected, washed, and homogenized with normal saline at a certain ratio, to provide tissue samples which were stored at −80° C. The plasma samples and tissue samples were processed with precipitated protein and then analyzed by LC-MS/MS. The pharmacokinetic parameters were computed using WinNonlin 6.3 software and using a non-compartmental model.

[2] = system: human medullary thyroid carcinoma TT cells; assay: Efficacy test in mice, subcutaneous xenograft tumor of TT cells; type: in vivo, Balb/c-nu mouse; details: 5 mg/kg, PO, BID; TT nude mouse xenograft
Procedure: Experimental purpose: To evaluate the in vivo efficacy of Compound 17 and BLU-667 in a Balb/c-nu mouse model with a subcutaneous xenograft tumor of human medullary thyroid carcinoma TT cells.
Drug preparation: Compound 17 was dissolved in 0.1 M aqueous solution of H3PO4, and BLU-667 was dissolved in 0.1 M aqueous solution of HOAc, to prepare clear solutions (pH: about 4.0). An aqueous solution of H3PO4 at a pH of about 4.0 was used for the solvent control group. The mode of administration was PO, BID.
Tumor measurement: The tumor diameter was measured with a vernier caliper twice a week. The computing formula of the tumor volume is: V=0.5×a×b^2, where a represents a long diameter of the tumor, and b represents a short diameter of the tumor. Evaluation of tumor growth inhibition rate (TGI (%)) for tumor inhibition efficacy of the compounds: TGI (%)=[(1-(mean tumor volume of a treatment group at the end of drug administration-mean tumor volume of the treatment group at the commencement of drug administration))/(mean tumor volume of a solvent control group at the end of treatment-mean tumor volume of the solvent control group at the commencement of treatment)]×100%.
Statistical analysis: Prism Graphpad5.0 software was used for statistical analysis based on the relative tumor volume at the end of the experiment. The comparison between multiple groups was analyzed by two-way ANOVA, and p<0.05 was considered as a significant difference.
Experimental results: In the TT nude mouse xenograft model of human medullary thyroid carcinoma, Compound 17 has a significant […] anti-tumor effect at a dose of 5 mg/kg. […] Relative tumor growth rate T/C (%)=TRTV/CRTV×100%, where TRTV is the mean relative tumor volume of the test compound group, CRTV is the relative tumor volume of the solvent control group; and the relative tumor volume RTV=Vt/V0, where V0 is the mean tumor volume at the commencement of the administration, and Vt is the mean tumor volume measured on day t after the administration.

SMILES	IC50 (RET-V804M) [nM]	IC50 (RET-M918T) [nM]	IC50 (RET-V804L) [nM]	IC50 (RET-WT) [nM]	IC50 (RET-CCDC6) [nM]	inhibition at 0.1 µM (VEGFR2) [%]	other results
Cc1cc(Nc2cc(C)[nH]n2)nc(-c2ccc(N3CC4CC(C3)N4Cc3ccc(-n4ncc(F)c4C)nc3)nc2)n1 [Compound 122, 2-(6-(6-((6-(4-fluoro-5-methyl-1H-pyrazol-1-yl)pyridin-3-yl)methyl)-3,6-diazabicyclo[3.1.1]heptan-3-yl)pyridin-3-yl)-6-methyl-N-(5-methyl-1H-pyrazol-3-yl)pyrimidin-4-amine]	3.33 ± 0.75	4.03 ± 0.66	4.79 ± 1.68	2.35 ± 0.24	2.91 ± 0.41	–	inhibition at 0.3 µM (VEGFR2; 300 nM): 67%
Cc1cc(Nc2cc(C)[nH]n2)nc(-c2ccc(N3CC4CC(C3)N4Cc3ccc(-n4ccc(C5CC5)n4)nc3)nc2)n1 [Compound 120, 2-(6-(6-((6-(3-cyclopropyl-1H-pyrazol-1-yl)pyridin-3-yl)methyl)-3,6-diazabicyclo[3.1.1]heptan-3-yl)pyridin-3-yl)-6-methyl-N-(5-methyl-1H-pyrazol-3-yl)pyrimidin-4-amine]	9.12 ± 1.85	15.8 ± 3.65	10.1 ± 1.05	7.33 ± 1.19	18.7 ± 7.27	28	–
Cc1cc(Nc2cc(C)[nH]n2)nc(-c2ccc(N3CC4CC(C3)N4Cc3ccc(-n4cccn4)nc3)nc2)n1 [Compound 60, 2-(6-(6-((6-(1H-pyrazol-1-yl)pyridin-3-yl)methyl)-3,6-diazabicyclo[3.1.1]heptan-3-yl)pyridin-3-yl)-6-methyl-N-(5-methyl-1H-pyrazol-3-yl)pyrimidin-4-amine]	3.77 ± 0.52	1.29 ± 0.27	5.07 ± 0.4	2.7 ± 0.69	3.99 ± 0.79	65	–
CO[C@]1(C(=O)N[C@@H](C)c2ccc(-n3cc(F)cn3)nc2)CC[C@H](c2nc(C)cc(Nc3cc(C)[nH]n3)n2)CC1 [BLU-667, reference compound]	–	–	–	–	–	–	AUC(0-t) ([1]; brain): 157 ng·h/mL; Cmax ([1]; brain): 30.8 ng/mL; Kp ([1]; brain): 0.018; Tmax ([1]; brain): 30 min; AUC(0-t) ([1]; lung): 25100 ng·h/mL; Cmax ([1]; lung): 3570 ng/mL; Kp ([1]; lung): 2.9; Tmax ([1]; lung): 30 min; AUC(0-t) ([1]; plasma): 8650 ng·h/mL; Cmax ([1]; plasma): 1490 ng/mL; Kp ([1]; plasma): 1; Tmax ([1]; plasma): 60 min; AUC(0-t) ([1]; thyroid): 6350 ng·h/mL; Cmax ([1]; thyroid): 888 ng/mL; Kp ([1]; thyroid): 0.73; Tmax ([1]; thyroid): 30 min; Relative tumor growth rate T/C [2]: 33.62%; Tumor growth inhibition rate TGI [2]: 88.82%
Cc1cc(Nc2cc(C)[nH]n2)nc(-c2ccc(N3CC4CC(C3)N4Cc3ccc(Cl)cn3)nc2)n1 [Compound 69, 2-(6-(6-((5-chloropyridin-2-yl)methyl)-3,6-diazabicyclo[3.1.1]heptan-3-yl)pyridin-3-yl)-6-methyl-N-(5-methyl-1H-pyrazol-3-yl)pyrimidin-4-amine]	–	8.6 ± 1.46	–	–	11 ± 9.65	2	inhibition at 0.01 µM (RET-V804M; 10 nM (Table 2), read-out: Inhibition rate on RET-V804M): 56%
